The values that follow come from PMC12299847, “Macroalgae-Inspired Brominated Chalcones as Cosmetic Ingredients with the Potential to Target Skin Inflammaging” (Marine Drugs, 2025).

One data set concerns HaCaT keratinocytes. The data set is described as follows: Resazurin cell viability assay in HaCaT keratinocytes. The data set is classed as cell-based, human. As to conditions: HaCaT, 24 h, significant effects only at 62.5 μM and 125 μM. Here is the method:
(§1) To evaluate the effects of chalcones 1–7 on cell viability after 24 h, a resazurin assay was performed using two cell lines: human HaCaT keratinocytes (HaCaT, CLS 300493), representing the epidermal layer, and murine RAW 264.7 macrophages (RAW 264.7, ATCC TIB-71), which model immune cells involved in dermal inflammatory responses. For the keratinocyte cell line, all seven brominated and non-brominated chalcones were tested across a concentration range from 2.5 μM to 125 μM (Figure 2).
(§2) Human keratinocytes (HaCaT, CLS 300493, Eppelheim, Germany) were cultured in DMEM supplemented with heat-inactivated FBS, and a penicillin and streptomycin antibiotic solution. The cell culture of keratinocytes was washed with 6 mL of phosphate buffer solution with 0.05% EDTA (Sigma-Aldrich, St. Louis, MO, USA) and detached using 3 mL of 0.05% trypsin + 0.02% EDTA in PBS solution when the cells reached 70–80% confluence in cell culture flasks. DMEM was also used to cultivate the mouse macrophage cell line (RAW 264.7, ATCC TIB-71, Manassas, VA, USA) together with 10% (v/v) non-inactivated FBS, 1.5 g/L sodium bicarbonate, and 100 U/mL penicillin and 100 μg/mL streptomycin stock (antibiotic solution). The macrophage culture was mechanically detached using a cell scraper, and the final amount of DMEM media with the cells was sub-cultured in a 1:10 ratio to the cellular suspension.
(§3) The resazurin reduction assay was employed to evaluate the metabolic activity of human epidermal keratinocyte (HaCaT) and murine macrophage (RAW264.7) cell lines, as outlined in a previous study. In brief, HaCaT cells (1.0 × 10^5 cells/mL) and RAW264.7 cells (5.0 × 10^4 cells/mL) were seeded in 96-well plates (200 μL/well) and incubated overnight at 37 °C to allow for cell attachment. Following this, the cells were treated with different concentrations of the test compounds and kept at 37 °C for 24 h. After 20 h, resazurin (500 μM in sterile phosphate buffer solution, pH 7.4) was added to each well to achieve a final concentration of 50 μM, followed by an additional incubation of 4 h. Absorbance was then measured at wavelengths of 570 and 620 nm using a SpectraMax Plus 384 absorbance microplate spectrophotometer (Molecular Devices, San Jose, CA, USA). Each experiment was conducted in triplicate, with a minimum of three independent assays. The results were graphically presented as the percentage of cell viability versus chemical concentration, relative to the control.
Figure 2 Cytotoxicity of chalcones 1–7 using a resazurin reduction assay in HaCaT cells by comparison with the control. Bar graphs represent the mean ± SEM of at least three independent experiments performed in triplicate. Statistical analysis: one ANOVA with Dunnett’s multiple comparisons test, where p < 0.05 was considered significant when compared to the control condition. * p < 0.05, ** p < 0.01, and *** p < 0.0005.

For a further data set, the system named is RAW 264.7 macrophages. The data set is described as follows: Resazurin cell viability assay in RAW 264.7 macrophages. In kind it is cell-based, murine. The settings on record: RAW 264.7, 24 h, 2.5 to 125 μM. Here is the method: as §1
To evaluate the cytotoxic effects of brominated and non-brominated chalcones 1–7 on macrophages, different concentration ranges were applied based on the response profiles previously observed for keratinocytes (Figure 3). […] For this set of chalcones, a similar tendency was observed: a lower cytotoxic characteristic of chalcone 4, which contained bromine atoms in both aromatic rings, compared to chalcones 5 (brominated in only the aromatic A ring) and 6 (non-brominated).
as §2
as §3, with “The results were graphically presented as the percentage of cell viability versus chemical concentration, relative to the control.” left out
On the technique in general: Alamar Blue is a resazurin reagent that responds to reducing activity.

`COc1cc(Br)c(/C=C/C(=O)c2cc(OC)c(OC)cc2Br)cc1OC` [Chalcone 1]: in the data set with HaCaT keratinocytes, the “maximal reduction in viability” value is given as at most 25%. Further, in the data set on RAW 264.7 macrophages, the cytotoxicity towards macrophages result is recorded as “no cytotoxicity”.
